Values after ≈ are worked out from the molar mass of the structure shown. Structures can show the parent of a compound that is named as a salt. Where two headings read alike, the source gives them in different places.
What was measured:
Type in all cases: cell-based
[1] = tested on: Aspergillus flavus AFL1 (ATCC MYA-3631); assay: Fungal MIC Protocol, Aspergillus flavus; settings: for MIC: Aspergillus flavus, read-out: MIC Aspergillus flavus 3631
How it was run: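 Aspergillus flavus spores were grown on Potato Dextrose Agar at 35° C. for 3-5 days, harvested in PBS pH 7.4+0.1% Tween-20 with glass beads, and diluted in RPMI/MOPS to an OD530 of 0.002 (about 2×10^4 cfu/mL). 50 ul of spores were combined with 50 μl of serially diluted compound in 96-well round bottom plates and incubated at 35° C. for 48 hours.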

[2] = tested on: Aspergillus fumigatus T33439 (ATCC MYA-3626); assay: Fungal MIC Protocol, Aspergillus fumigatus; settings: for MIC: Aspergillus fumigatus, read-out: MIC Aspergillus fumigatus 3626
How it was run: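 Aspergillus fumigatus was grown on Potato Dextrose Agar at 35° C. for 3-5 days, and spores were collected with PBS pH 7.4+0.1% Tween-20 plus glass beads. Spores were diluted in RPMI/MOPS to OD530 0.002 (about 2×10^4 cfu/mL). 50 ul was added to 50 μl of serially diluted compound in round bottom 96-well plates, run in duplicate, and incubated at 35° C. for 48 hours.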

[3] = tested on: Fusarium falciforme FS1 (ATCC MYA-3636); assay: Fungal MIC Protocol, Fusarium falciforme; settings: for MIC: Fusarium falciforme, read-out: MIC Fusarium falciforme 3636
How it was run: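 Fusarium falciforme spores were raised on Potato Dextrose Agar at 35° C. for 3-5 days, collected in PBS pH 7.4+0.1% Tween-20 with glass beads, and diluted in RPMI/MOPS pH 7.0 to OD530 0.005 (about 2×10^4 cfu/mL). 50 ul spores were added to 50 μl duplicate serial compound dilutions in round bottom 96-well plates and incubated at 35° C. for 48 hours.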

[4] = tested on: Fusarium solani (ATCC 58877); assay: Fungal MIC Protocol, Fusarium solani; settings: for MIC: Fusarium solani, read-out: MIC Fusarium solani 58877
How it was run: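 Fusarium solani spores were grown on Potato Dextrose Agar in tissue culture flasks at 35° C. for 3-5 days, harvested with PBS pH 7.4+0.1% Tween-20 and glass beads, and diluted in RPMI/MOPS to an OD530 of 0.005 (about 2×10^4 cfu/mL). Equal 50 ul volumes of spores and serially diluted compound were combined in 96-well round bottom plates and incubated 48 hours at 35° C.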

[5] = tested on: Mucor circinelloides 1463(62) (ATCC 26759); assay: Fungal MIC Protocol, Mucor circinelloides (MIC-50); settings: for MIC50: Mucor circinelloides, read-out: MIC-50 Mucorales circinelloides 26579
How it was run: (§1)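 Harvested spores, adjusted by OD530 to about 2×10^4 cfu/mL in RPMI/MOPS pH 7.0, are mixed with ten duplicate serial dilutions of compound. Incubation runs 48 h at 35° C before visual scoring of the lowest concentration inhibiting growth >50%.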

[6] = tested on: Mucor ramosissimus 057718 (ATCC 90286); assay: Fungal MIC Protocol, Mucor ramosissimus (MIC-50); settings: for MIC50: Mucor ramosissimus, read-out: MIC-50 Mucorales ramosissimus 90286
How it was run: as §1

[7] = tested on: Candida albicans GDH2346; assay: Candida Minimal Inhibitory Concentration (MIC); settings: for MIC50: Candida albicans, read-out: MIC-50 Candida albicans GDH2346
How it was run: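 Twofold serial dilutions from 200 μg/mL in RPMI 1640/MOPS with glucose, pH 7.0, tested in duplicate against yeast from an OD600 1.0 suspension diluted 1:1000. Incubated at 35° C; OD600 read at 24 and 48 h.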

[8] = 100% growth inhibition at 48 hours
[9] = ATCC58877, 100% growth inhibition at 48 hours
[10] = ATCC26759, 50% growth inhibition at 48 hours
[11] = ATCC90286, 50% growth inhibition at 48 hours
[12] = GDH2346, 50% growth inhibition at 48 hours
[13] = 50% growth inhibition at 48 hours

SMILES | MIC [1, 8] | MIC [2, 8] | MIC [3, 8] | MIC [4, 9] | MIC50 [5, 10] | MIC50 [6, 11] | MIC50 [7, 12] | further results
N=C(N)N1CC=C(c2ccc(-c3nnc(-c4ccc(C5=CCN(C(=N)N)CC5)cc4F)o3)cc2)CC1 [Example 50, 4-(4-(5-(4-(1-Carbamimidoyl-1,2,3,6-tetrahydropyridin-4-yl)-2-fluorophenyl)-1,3,4-oxadiazol-2-yl)phenyl)-5,6-dihydropyridine-1(2H)-carboximidamide] | 0.39 µg/mL (≈ 0.802 µM) | 0.78 µg/mL (≈ 1.6 µM) | < 0.1 µg/mL | 1.56 µg/mL (≈ 3.21 µM) | 50 µg/mL (≈ 103 µM) | 25 µg/mL (≈ 51.4 µM) | 0.78 µg/mL (≈ 1.6 µM) | –
Cc1cc(C2=CCN(C(=N)N)CC2)ccc1-c1nnc(-c2ccc(C3=CCN(C(=N)N)CC3)cc2C)n1C [Example 22, 4,4′-(4,4′-(4-Methyl-4H-1,2,4-triazole-3,5-diyl)bis(3-methyl-4,1-phenylene))bis(5,6-dihydropyridine-1(2H)-carboximidamide)] | 0.39 µg/mL (≈ 0.765 µM) | 0.78 µg/mL (≈ 1.53 µM) | 0.78 µg/mL (≈ 1.53 µM) | 0.2 µg/mL (≈ 0.392 µM) | 1.56 µg/mL (≈ 3.06 µM) | 6.25 µg/mL (≈ 12.3 µM) | 0.16 µg/mL (≈ 0.314 µM) | –
Cn1c(-c2ccc(C3=CCN(C(=N)N)CC3)c(F)c2)nnc1-c1ccc(C2=CCN(C(=N)N)CC2)cc1F [Example 79, 4-(4-{5-[4-(1-carbamimidoyl-1,2,3,6-tetrahydropyridin-4-yl)-2-fluorophenyl]-4-methyl-4H-1,2,4-triazol-3-yl}-2-fluorophenyl)-1,2,3,6-tetrahydro pyridine-1-carboximidamide trifluoroacetate] | 0.1 µg/mL | 0.1 µg/mL | 0.05 µg/mL | 0.1 µg/mL | 0.2 µg/mL | 0.39 µg/mL | 0.1 µg/mL | –
N=C(N)N1CC=C(c2ccc(-c3nnc(-c4ccc(C5=CCN(C(=N)N)CC5)cc4F)o3)c(F)c2)CC1 [Example 48] | 0.78 µg/mL (≈ 1.55 µM) | 0.78 µg/mL (≈ 1.55 µM) | < 0.1 µg/mL | 3.13 µg/mL (≈ 6.2 µM) | 0.78 µg/mL (≈ 1.55 µM) | 6.25 µg/mL (≈ 12.4 µM) | 1.56 µg/mL (≈ 3.09 µM) | –
N=C(N)N1CC=C(c2ccc(-c3cn(-c4ccc(C5=CCN(C(=N)N)CC5)cc4)nn3)cc2)CC1 [Example 30, 4(4-{1-[4-(1-Carbamimidoyl-1,2,3,6-tetrahydropyridin-4-yl)phenyl]-1H-1,2,3-triazol-4-yl}phenyl)-1,2,3,6-tetrahydropyridine-1-carboximidamide] | 0.06 µg/mL (≈ 0.128 µM) | 0.01 µg/mL (≈ 0.0214 µM) | 0.01 µg/mL (≈ 0.0214 µM) | < 0.05 µg/mL | 0.1 µg/mL (≈ 0.214 µM) | 0.78 µg/mL (≈ 1.67 µM) | 0.63 µg/mL (≈ 1.35 µM) | –
Cn1nc(-c2ccc(C3=CCN(C(=N)N)CC3)cc2)nc1-c1ccc(C2=CCN(C(=N)N)CC2)cc1 [Example 38, 4,4′-(4,4′-(1-Methyl-1H-1,2,4-triazole-3,5-diyl)bis(4,1-phenylene)) bis(5,6-dihydropyridine-1(2H)-carboximidamide)] | – | – | – | – | – | – | – | MIC Aspergillus flavus 3631 [1, 8]: 0.16 µg·mL; MIC Aspergillus fumigatus 3626 [2, 8]: 0.2 µg·mL; MIC Fusarium falciforme 3636 [3, 8]: 0.2 µg·mL; MIC Fusarium solani 58877 [4, 8]: <0.1 µg·mL; MIC-50 Mucorales circinelloides 26579 [5, 13]: 3.13 µg/mL (≈ 6.5 µM); MIC-50 Mucorales ramosissimus 90286 [6, 13]: 0.78 µg/mL (≈ 1.62 µM); MIC-50 Candida albicans GDH2346 [7, 13]: 6.25 µg/mL (≈ 13 µM)
CC(C)Cn1c(-c2ccc(C3=CCN(C(=N)N)CC3)cc2F)nnc1-c1ccc(C2=CCN(C(=N)N)CC2)cc1F [Example 14] | < 0.1 µg/mL | < 0.1 µg/mL | < 0.1 µg/mL | 6.25 µg/mL (≈ 11.2 µM) | < 0.1 µg/mL | 1.56 µg/mL (≈ 2.79 µM) | 0.39 µg/mL (≈ 0.697 µM) | –
CC(C)n1c(-c2ccc(C3=CCN(C(=N)N)CC3)cc2)nnc1-c1ccc(C2=CCN(C(=N)N)CC2)cc1 [Example 3, 4,4′-(4,4′-(4-isopropyl-4H-1,2,4-triazole-3,5-diyl)bis(4,1-phenylene))bis(5,6-dihydropyridine-1 (2H)-carboximidamide)] | < 0.1 µg/mL | < 0.1 µg/mL | < 0.1 µg/mL | < 0.1 µg/mL | 0.39 µg/mL (≈ 0.765 µM) | 0.78 µg/mL (≈ 1.53 µM) | 0.1 µg/mL (≈ 0.196 µM) | –
Cn1c(-c2ccc(C3=CCC(C(=N)N)CC3)cc2F)nnc1-c1ccc(C2=CCC(C(=N)N)CC2)cc1F (stereo not drawn) [Example 87, 4-(4-{5-[4-(4-carbamimidoylcyclohex-1-en-1-yl)-2-fluorophenyl]-4-methyl-4H-1,2,4-triazol-3-yl}-3-fluorophenyl)cyclohex-3-ene-1-carboximidamide trifluoroacetate] | – | – | – | – | – | – | – | MIC ([1]; 48 h): 0.78 µg/mL; MIC ([2]; 48 h): 0.2 µg/mL; MIC ([3]; 48 h): 0.1 µg/mL; MIC ([4]; ATCC58877, 48 h): 0.2 µg/mL; MIC50 ([5]; ATCC26759, 48 h): 0.39 µg/mL; MIC50 ([6]; ATCC90286, 48 h): 3.13 µg/mL; MIC50 ([7]; GDH2346, 48 h): 0.2 µg/mL
N=C(N)N1CC=C(c2ccc(-c3nnc(-c4ccc(C5=CCN(C(=N)N)CC5)cc4F)n3CCO)cc2)CC1 [Example 82, 4-(4-{5-[4-(1-carbamimidoyl-1,2,3,6-tetrahydropyridin-4-yl)-2-fluorophenyl]-4-(2-hydroxyethyl)-4H-1,2,4-triazol-3-yl}phenyl)-1,2,3,6-tetrahydropyridine-1-carboximidamide hydrochloride] | – | – | – | – | – | – | – | MIC ([1]; 48 h): 0.2 µg/mL; MIC ([2]; 48 h): 0.1 µg/mL; MIC ([3]; 48 h): 0.05 µg/mL; MIC ([4]; ATCC58877, 48 h): 0.05 µg/mL; MIC50 ([5]; ATCC26759, 48 h): 0.39 µg/mL; MIC50 ([6]; ATCC90286, 48 h): 1.56 µg/mL; MIC50 ([7]; GDH2346, 48 h): 0.2 µg/mL
Cn1c(-c2ccc(C3=CCN(C(=N)N)CC3)cc2)nnc1-c1ccc(C2=CCN(C(=N)N)CC2)c(C(F)(F)F)c1 [Example 25, 4-(4-(5-(4-(1-Carbamimidoyl-1,2,3,6-tetrahydropyridin-4-yl)-3-(trifluoromethyl)phenyl)-4-methyl-4H-1,2,4-triazol-3-yl)phenyl)-5,6-dihydropyridine-1(2H)-carboximidamide] | 0.39 µg/mL (≈ 0.71 µM) | 0.2 µg/mL (≈ 0.364 µM) | 0.2 µg/mL (≈ 0.364 µM) | 0.2 µg/mL (≈ 0.364 µM) | 0.78 µg/mL (≈ 1.42 µM) | 3.13 µg/mL (≈ 5.69 µM) | 0.78 µg/mL (≈ 1.42 µM) | –
N=C(N)N1CC=C(c2ccc(-c3nnc(-c4ccc(C5=CCN(C(=N)N)CC5)cc4F)n3CCO)c(F)c2)CC1 [Example 57, 4,4′-(4,4′-(4-(2-Hydroxyethyl)-4H-1,2,4-triazole-3,5-diyl)bis(3-fluoro-4,1-phenylene))bis(5,6-dihydropyridine-1(2H)-carboximidamide)] | 0.2 µg/mL (≈ 0.365 µM) | < 0.1 µg/mL | < 0.1 µg/mL | < 0.1 µg/mL | 0.39 µg/mL (≈ 0.712 µM) | 3.13 µg/mL (≈ 5.72 µM) | 0.2 µg/mL (≈ 0.365 µM) | –

Source: patent US20240018121A1, “NOVEL HETEROAROMATIC COMPOUNDS EXHIBITING ANTIFUNGAL ACTIVITY AND THEIR METHOD OF USE” (FOX CHASE CHEMCIAL DIVERSITY CENTER, INC., priority 2020, published 2024)
